pKi: −log10 of the molar value.
Target: human PSMA (Homo sapiens (Human), UniProt Q04609)
Assay: Enzymatic assay for in vitro evaluation of PSMA inhibitors (fluorescent assay of PSMA activity, NAAG substrate, OPA detection of glutamate)
Assay type: biochemical
Details: for PSMA Blkg % (10 μM): compound at 10 μM

Sequence of human PSMA (Q04609 whole entry): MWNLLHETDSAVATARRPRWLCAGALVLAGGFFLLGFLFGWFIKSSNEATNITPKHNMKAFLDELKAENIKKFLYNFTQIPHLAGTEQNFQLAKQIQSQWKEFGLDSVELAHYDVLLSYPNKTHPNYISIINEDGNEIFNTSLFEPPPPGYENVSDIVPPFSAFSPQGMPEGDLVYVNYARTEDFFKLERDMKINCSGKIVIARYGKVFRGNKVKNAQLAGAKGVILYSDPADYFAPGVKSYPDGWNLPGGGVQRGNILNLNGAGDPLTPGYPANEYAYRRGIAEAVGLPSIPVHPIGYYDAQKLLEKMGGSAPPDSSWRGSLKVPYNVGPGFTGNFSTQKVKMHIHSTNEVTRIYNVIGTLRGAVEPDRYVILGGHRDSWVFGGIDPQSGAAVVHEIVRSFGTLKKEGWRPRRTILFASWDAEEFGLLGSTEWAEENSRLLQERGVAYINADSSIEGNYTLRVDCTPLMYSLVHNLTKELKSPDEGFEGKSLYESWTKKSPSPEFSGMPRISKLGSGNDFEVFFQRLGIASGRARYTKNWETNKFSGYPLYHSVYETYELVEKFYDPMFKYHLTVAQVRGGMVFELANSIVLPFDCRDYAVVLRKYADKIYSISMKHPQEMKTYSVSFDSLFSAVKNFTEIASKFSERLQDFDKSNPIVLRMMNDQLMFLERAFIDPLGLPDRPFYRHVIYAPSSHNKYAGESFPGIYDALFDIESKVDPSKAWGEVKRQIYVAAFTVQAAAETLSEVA

Compound	PSMA Blkg % (10 μM) [%]	pKi
Nc1ccc(/C(O)=C2\C(=O)NC(=O)N([C@@H](CCC(=O)O)C(=O)O)C2=O)cc1 [P127, (S,Z)-2-(5-((4-Aminophenyl)(hydroxy)methylene)-2,4,6-trioxotetrahydropyrimidin-1(2H)-yl)pentanedioic Acid]	10	
O=C(O)CC[C@@H](C(=O)O)N1C(=O)CC(=O)N([C@@H](CCCCNS(=O)(=O)c2ccc([N+](=O)[O-])cc2)C(=O)O)C1=O [P128, (S)-2-(3-((S)-1-Carboxy-5-(4-nitrophenylsulfonamido)pentyl)-2,4,6-trioxotetrahydropyrimidin-1(2H)-yl)pentanedioic Acid]	12	
O=C(O)CC[C@@H](C(=O)O)N1C(=O)CC(=O)N([C@@H](CCCCNC(=O)NCc2ccccc2)C(=O)O)C1=O [P129, (S)-2-(3-((S)-5-(3-Benzylureido)-1-carboxypentyl)-2,4,6-trioxotetrahydropyrimidin-1(2H)-yl)pentanedioic Acid]	10	
CCC1(CC)C(=O)N([C@@H](CCCCNC(=S)Nc2ccc(-n3cc(CCCF)nn3)cc2)C(=O)O)C(=O)N([C@@H](CCC(=O)O)C(=O)O)C1=O [P130, (S)-2-(3-((S)-1-Carboxy-5-(3-(4-(4-(3-fluoropropyl)-1H-1,2,3-triazol-1-yl)phenyl)thioureido)pentyl)-5,5-diethyl-2,4,6-trioxotetrahydropyrimidin-1 (2H)-yl)pentanedioic Acid]	10	
O=C(O)CC[C@H](NC(=O)CN(O)C(=O)CCCCNC(=O)c1ccccc1)C(=O)O [P131, (S)-2-(2-(5-Benzamido-N-hydroxypentanamido)acetamido)pentanedioic Acid]	6	
COc1ccc(CCCC(=O)N(O)CC(=O)N[C@@H](CCC(=O)O)C(=O)O)cc1 [P132, (S)-2-(2-(N-Hydroxy-4-(4-methoxyphenyl)butanamido)acetamido)pentanedioic Acid]	17	
CN(C(=O)N[C@@H](CCC(=O)O)C(=O)O)[C@@H](CCCCNC(=O)c1ccc(F)nc1)C(=O)O [P133, (S)-2-(3-((S)-1-Carboxy-5-(6-fluoronicotinamide)pentyl)-3-methylureido)-pentanedioic Acid]	95	6.90
Nc1ccc(CCCC(=O)N(O)CC(=O)N[C@@H](CCC(=O)O)C(=O)O)cc1 [P134, (S)-2-(2-(4-(4-Aminophenyl)-N-hydroxybutanamido)acetamido)pentanedioic Acid]	37	
O=C(O)CC[C@@H](NC(=O)N(O)[C@@H](CC(=O)NCc1ccccc1)C(=O)O)C(=O)O [P135, (R)-2-(3-((S)-3-(Benzylamino)-1-carboxy-3-oxopropyl)-3-hydroxyureido)pentanedioic Acid]	42	
[N-]=[N+]=Nc1ccc(CCCC(=O)NC(Cc2cn(C(CCC(=O)O)C(=O)O)nn2)C(=O)O)cc1 (stereo not shown) [P137]	3	
CCC1(CC)C(=O)N([C@@H](CCCCNC(=O)OCc2ccccc2)C(=O)O)C(=S)N([C@@H](CCC(=O)O)C(=O)O)C1=O [P138, (S)-2-(3-((S)-5-(Benzyloxycarbonylamino)-1-carboxypentyl)-5,5-diethyl-4,6-dioxo-2-thioxotetrahydropyrimidin-1(2H)-yl)pentanedioic Acid]	6	
O=C(O)CC[C@H](NC(=O)N(O)[C@@H](CCCNC(=O)OCc1ccccc1)C(=O)O)C(=O)O [P139, (8S,12S)-9-Hydroxy-3,10-dioxo-1-phenyl-2-oxa-4,9,11-triazatetradecane-8,12,14-tricarboxylic Acid]	16	
O=C(O)CC[C@@H](C(=O)O)N(O)C(=O)N[C@@H](CCCCNC(=O)OCc1ccccc1)C(=O)O [P140, (9S,13S)-12-Hydroxy-3,11-dioxo-1-phenyl-2-oxa-4,10,12-triazapentadecane-9,13,15-tricarboxylic Acid]	64	
O=C(O)CC[C@H](NC(=O)CN(O)C(=O)CCCNC(=O)c1ccc(-n2cc(CCCF)nn2)cc1)C(=O)O [P141, (S)-2-(2-(4-(4-(4-(3-Fluoropropyl)-1H-1,2,3-triazol-1-yl)benzamido)-N-hydroxybutanamido)acetamido)pentanedioic Acid]	1	
O=C(O)CC[C@H](NC(=O)CN(O)C(=O)CCCNC(=O)Cn1cc(CCCF)nn1)C(=O)O [P142, (S)-2-(2-(4-(2-(4-(3-Fluoropropyl)-1H-1,2,3-triazol-1-yl)acetamido)-N-hydroxybutanamido)acetamido)pentanedioic Acid]	5	
CN(C(=S)N[C@@H](CCC(=O)O)C(=O)O)[C@@H](CCCCNC(=O)OCc1ccccc1)C(=O)O [P143, (9S,13S)-10-Methyl-3-oxo-1-phenyl-1-thioxo-2-oxa-4,10,12-triazapentadecane-9,13,15-tricarboxylic Acid]	15	
O=C(O)CC[C@H](NC(=O)CN(O)C(=O)CCc1ccc(-n2cc(CCCF)nn2)cc1)C(=O)O [P144, (S)-2-(2-(3-(4-(4-(3-Fluoropropyl)-1H-1,2,3-triazol-1-yl)phenyl)-N-hydroxypropanamido)acetamido)pentanedioic Acid]	7	

Compound	PSMA Blkg % (10 μM) [%]	pKi
O=C(O)CC[C@H](NC(=S)CN(O)C(=O)CCCc1ccc(-n2cc(CCCF)nn2)cc1)C(=O)O [P145, (S)-2-(2-(4-(4-(4-(3-Fluoropropyl)-1H-1,2,3-triazol-1-yl)phenyl)-N-hydroxy-butanamido)ethanethioamido)pentanedioic Acid]	7	
O=C(O)CC[C@H](NC(=S)N(O)[C@@H](CCCCNC(=O)c1ccc(-n2cc(CCCF)nn2)cc1)C(=O)O)C(=O)O [P146, (S)-2-(3-((S)-1-Carboxy-5-(4-(4-(3-fluoropropyl)-1H-1,2,3-triazol-1-yl)benzamido)pentyl)-3-hydroxythioureido)pentanedioic Acid]	45	
O=C(O)CC[C@@H](C(=O)O)N(O)C(=O)N[C@@H](CCCCNC(=O)CCCc1ccc(-n2cc(CCCF)nn2)cc1)C(=O)O [P147, (S)-2-(3-((S)-1-Carboxy-5-(4-(4-(4-(3-fluoropropyl)-1H-1,2,3-triazol-1-yl)phenyl)butanamido)pentyl)-1-hydroxyureido)pentanedioic Acid]	69	
O=C(O)CC[C@@H](C(=O)O)N(O)C(=O)N[C@@H](CCCCNC(=O)Cn1cc(CCCF)nn1)C(=O)O [P148, (S)-2-(3-((S)-1-Carboxy-5-(2-(4-(3-fluoropropyl)-1H-1,2,3-triazol-1-yl)acetamido)pentyl)-1-hydroxyureido)pentanedioic Acid]	87	6.60
COc1ccc(CCNC(=O)N(O)CC(=O)N[C@@H](CCC(=O)O)C(=O)O)cc1OC [P149, (S)-2-(2-(3-(3,4-Dimethoxyphenethyl)-1-hydroxyureido)acetamido)pentanedioic Acid]	0	
CCC1(CC)C(=O)N([C@@H](CCCCn2cc(CCCF)nn2)C(=O)O)C(=O)N([C@@H](CCC(=O)O)C(=O)O)C1=O [P150, (S)-2-(3-((S)-1-Carboxy-5-(4-(3-fluoropropyl)-1H-1,2,3-triazol-1-yl)pentyl)-5,5-diethyl-2,4,6-trioxotetrahydropyrimidin-1(2H)-yl)pentanedioic Acid]	9	
CCC1(CC)C(=O)N([C@@H](CCCCn2cc(COCCOCCNc3ccc([N+](=O)[O-])cc3[N+](=O)[O-])nn2)C(=O)O)C(=O)N([C@@H](CCC(=O)O)C(=O)O)C1=O [P151, (S)-2-(3-((S)-1-Carboxy-5-(4-((2-(2-(2,4-dinitrophenylamino)ethoxy)ethoxy)methyl)-1H-1,2,3-triazol-1-yl)pentyl)-5,5-diethyl-2,4,6-trioxotetrahydropyrimidin-1(2H)-yl)pentanedioic Acid]	17	
O=C(O)CC[C@@H](C(=O)O)N(O)C(=O)N[C@@H](CCCCNC(=O)c1ccc(-n2cc(CCCF)nn2)cc1)C(=O)O [P152, (S)-2-(3-((S)-1-Carboxy-5-(4-(4-(3-fluoropropyl)-1H-1,2,3-triazol-1-yl)benzamido)pentyl)-1-hydroxyureido)pentanedioic Acid]	93	6.89
N#C/N=C(/N[C@@H](CCCCNC(=O)c1ccc(-n2cc(CCCF)nn2)cc1)C(=O)O)N[C@@H](CCC(=O)O)C(=O)O [P153, (S)-2-(3-((S)-1-Carboxy-5-(4-(4-(3-fluoropropyl)-1H-1,2,3-triazol-1-yl)benzamido)pentyl)-2-cyanoguanidino)pentanedioic Acid]	63	
O=C(O)CC[C@H](NC(=O)CN(O)C(=O)CCCc1ccc(F)cc1)C(=O)O [P154, (S)-2-(2-(4-(4-Fluorophenyl)-N-hydroxybutanamido)acetamido)pentanedioic Acid]	50	
O=C(O)CC[C@H](NC(=O)N[C@@H](CCCCNC(=O)c1ccc(F)cc1)C(=O)O)C(=O)O [P155]	97	8.51
CN(C(=O)N[C@@H](CCC(=O)O)C(=O)O)[C@@H](CCCCNC(=O)c1ccc(F)cc1)C(=O)O [P156, (S)-2-(3-((S)-1-Carboxy-5-(4-fluorobenzamido)pentyl)-3-methylureido)pentanedioic Acid]	87	6.66
CC(F)C(=O)Nc1ccc(C(=O)NCCCC[C@@H](C(=O)O)N(O)C(=O)N[C@@H](CCC(=O)O)C(=O)O)cc1 (stereo partly drawn) [P157, (2S)-2-(3-((1S)-1-Carboxy-5-(4-(2-fluoropropanamido)benzamido)pentyl)-3-hydroxyureido)pentanedioic Acid]	79	< 6.50
CC(F)C(=O)Nc1ccc(C(=O)NCCCCC(C(=O)O)N(C)C(=O)N[C@@H](CCC(=O)O)C(=O)O)cc1 (stereo partly drawn) [P158, (2S)-2-(3-((S)-1-Carboxy-5-(4-(2-fluoropropanamido)benzamido)pentyl)-3-methylureido)pentanedioic Acid]	99	7.46
CN(C(=O)[C@H](CC(=O)O)NC(=O)c1ccc(-n2cc(CCCF)nn2)cc1)[C@@H](CCC(=O)O)C(=O)O [P159, (S)-2-((S)-3-Carboxy-2-(4-(4-(3-fluoropropyl)-1H-1,2,3-triazol-1-yl)benzamido)-N-methylpropanamido)pentanedioic Acid]	39	
CN(C(=O)N[C@@H](CCC(=O)O)C(=O)O)[C@@H](CCCCNC(=O)c1ccc(OCCF)cc1)C(=O)O [P161]	96	
